Series [1] concerns T Lymphocyte (spleen cell of BALB/C mouse). The experiment in a line: Inhibition of Blastogenesis Reaction of T Lymphocyte by Con A (3H-thymidine take-up). The series is classed as cell-based. The note with it: Con A 5 micrograms/liter, 37° C., 72 hours. The procedure: Inhibition of Blastogenesis Reaction of T Lymphocyte by Con A.
Spleen cell of BALB/C mouse was dividingly poured into a microplate so that the number of cells came to 2×10^5 /0.2 ml/well. To each of all the wells other than control group was added the compound of the present invention having varied concentration. Further, 5 […] of Con A was added to all the wells. Then, the cell suspensions were cultured at 37° C. for 72 hours in 5% carbon dioxide gas incubator. The blastogenesis reaction of lymphocyte was examined by adding 1μCi/well of ^3 H-thymidine 6 hours before the completion of the culture and measuring its take-up into cultured cells by means of liquid scintillation counter. If the take-up count at the time when only Con A was added was expressed by Adpm and the take-up count at the time when Con A and drug were added was expressed by Bdpm, (1 - Bdpm/Adpm)×100 could be regarded as the inhibitory rate of each drug on blastogenesis.

A short description of series [2]: Solubilities into solvents. It counts as physicochemical. The source says:
(8) Solubilities into solvents

The test system of series [3] is Herpes Simplex virus type-II. The experiment in a line: Antiviral activity by CPE (cytopathic effect) of Herpes Simplex virus type-II on Vevo cell. It counts as cell-based. Conditions: read-out: Inhibition rate (%). The protocol: (a) Its antiviral activity was measured by observing CPE (cytopathic effect) of Herpes Simplex virus type-II on the Vevo cell originated from the kidney of Cercopithecus aetiops.
A general note: Damage to the host cells serves as the signal in cytopathic effect assays.

In series [4] the test system is Human Immunodeficiency Virus (HIV). The experiment in a line: Anti-HIV activity: development of virus antigen in MT-4 cell (fluorescent antibody technique). Conditions: for Development of virus antigen (%): 4 days, DMSO only 80 to 90%. It counts as cell-based. The procedure:
(b) Anti-"Human Immunodeficiency Virus (HIV)" activity.
(§1) About 100,000 cells/ml of MT-4 cell was introduced into a tray having 24 holes. Further, 100 microliters of a solution containing a predetermined quantity of the compound of the present invention was added, and then it was cultured in a 5% (v/v) carbon dioxide gas incubator at 37° C. for 5 hours. Subsequently, 10^3 to 10^4 infection units of HIV was added and cultured for 4 days. Then, a part of the culture fluid was applied to a slide glass and immobilized with acetone, and development of virus antigen was examined by the fluorescent antibody technique.
A serum of an AIDS patient was used as the primary antibody of the fluorescent antibody technique, and FITC-labelled anti-human IgG was used as its secondary antibody.
The compound of the present invention was used in the form of a solution
in DMSO. In DMSO itself only, development of virus antigen was 80 to 90%.

The test system of series [5] is MT-4 cell. The experiment in a line: Cytopathic effect on MT-4 cell without virus (microscopy). It counts as cell-based. Conditions: summary in words. The protocol:
as §1, with “technique. Cytopathic effect of the compound of the invention on MT-4 cell was examined microscopically without adding virus.” for “technique.”

Series [6] in a line: Acute toxicity (LD50) on mouse. It counts as in vivo. Conditions: in vivo, iv. The procedure: (§2) (3) The acute toxicity (LD50) of the compound of formula (1) on mouse was 200 mg/kg (iv) or above which is weaker than the toxicities of various known nucleic acid type antibiotics.
The subject of series [7] is mouse. The experiment in a line: Acute toxicity (LD50) on mouse. The series is classed as in vivo. The note with it: iv. The protocol: as §2

The IC50 is the midpoint of a concentration-inhibition curve. A higher IC50 goes with a need for much substance. As a reminder, the inhibition is the drop in the measured response relative to a control, in per cent. One may read the LD50 as the dose expected to kill half of the subjects tested.

Each structure is given as a SMILES string.

In series [1], `O=c1[nH]cnc2c1ncn2[C@@H]1O[C@H](CO)[C@H]1CO` [compound of formula (1), 9-[(2'R,3'R,4'S)-3',4'-bis-(hydroxymethyl)-2'-oxetanyl]-hypoxanthine] displayed a 50% inhibitory concentration (IC50) of 14.5 µg/mL. The Solubility entry in series [2] (acetone) is “insoluble or only slightly soluble”; in series [2] (benzene), “insoluble or only slightly soluble”; in series [2] (dimethyl sulfoxide), “soluble”; in series [2] (ether) it was “insoluble or only slightly soluble”; in series [2] (ethyl acetate), “insoluble or only slightly soluble”; in series [2] (methanol), “soluble”. Further, the Solubility entry in series [2] (propanol) was “insoluble or only slightly soluble”; in series [2] (water), “soluble”. Moreover, in series [3] (31.3 mcg/well), the inhibition at 31.3 µg/disc worked out at 8%. Besides, the inhibition at 62.5 µg/disc in series [3] (62.5 mcg/well) turned out to be 33%. Besides, the inhibition at 125 µg/disc in series [3] (125 mcg/well) was 75%. The “Development of virus antigen (%)” value in series [4] (1 μg/ml) was 40%; in series [4] (10 μg/ml), 10%; in series [4] (100 μg/ml) it was 2%. Further, the “growth-inhibitory action of HIV” value in series [4] (summary in words) is listed as “marked”. In addition, the “cytopathic effect (summary)” value in series [5] was “small”. Moreover, in series [6], the median lethal dose (LD50) is ≥ 200 mg/kg. For the same compound, the “acute toxicity compared with various known nucleic acid type antibiotics” value in series [7] is listed as “weaker”.

The record behind these values is patent publication US4845215A, “Purine derivative” (Nippon Kayaku Kabushiki Kaisha, priority 1987, dated 1989).
